Test results taken from US5461057A, “Hydro-ethano-indeno-pyridines” (priority 1994, dated 1995).

What was measured:
[1] = system: LOX human melanoma cell adhesion to polylysine; experiment: LOX melanoma cell adhesion to polylysine; type: cell-based; settings: read-out: Poly Lys IC50
Experimental: (§1) Adhesion assays were run essentially as described previously (Pai et al., J. Biomed. Res. 2: 53, 1992). 96-well plates were coated with human fibronectin (140 ng/well), human vitronectin (75 ng/well), human collagen I (100 ng/well), human collagen IV (100 ng/well), human fibrinogen (1 μg/well), murine laminin (600 ng/well), or polylysine, and incubated overnight in a humidified 37° C. incubator. Excess fibronectin or other substrate was then removed and 0.2 ml of 2 mg/ml bovine serum albumin (BSA)in Dulbecco's phosphate-buffered saline (DPBS) was added to each well, incubated for 2 hours at 37° C., and removed. LOX human melanoma cells, M27 murine lung carcinoma cells or B16F10 mouse melanoma cells were detached from tissue culture flasks with RPMI medium containing 0.2M urea and 10 mM EDTA, and 0.18 ml of cells were added to each well to a final cell concentration of 1×10^5 cells/well. For inhibition studies 20 μl of 10× compound was added to the wells prior to cell addition. Cells were allowed to adhere for 1 hour at 37° C. The wells were then gently washed twice with 0.2 ml DPBS. The fluorescent dye calcein AM (Molecular Probes, Eugene Oreg.) in DPBS (0.1 ml of 1 μM) was added to each well, and the plates were incubated for 1 hour at room temperature. Adherent cells were quantitated by reading the fluorescence on a Cytofluor 2300 fluorescent plate reader (Millipore) at 485 nm excitation and 530 nm emission.

[2] = system: pulmonary resistance; experiment: Pulmonary Resistance in the Anesthetized Rat; type: in vivo; settings: 0.5 mpk, i.v., mean of 5 animals, % decrease in pre-drug baseline resistance; for inhibition in vivo at 0.5 mg/kg: Rattus norvegicus, iv, read-out: Pulmonary Resistance in Rats, % Inhibition
Experimental: Rats (400-500 g) anesthetized with dialurethane were surgically prepared with tracheal and esophageal catheters. These catheters were connected to pressure transducers for recording of air flow, tracheal and esophageal pressures. These pressures formed the basis for measurement of pulmonary resistance. Inhibition of pulmonary resistance is a reflection of bronchodilation.
All compounds were tested i. v. in 5 separate animals. All data are expressed in % decrease in the pre-drug baseline resistance and each number given is the mean of the 5 animals tested.
The model is sensitive to bronchodilator activity.
Further information relating this test can be obtained from the following publications which are hereby incorporated by reference: Comroe et al, J. Appl. Physio. 4:439-44 (1959); Dungan et al J. Pharmacol. Exp. Therap. 164:290-301(1968); and Mead, J. et al. J. Appl. Physio. 5:779-796 (1953).

[3] = system: TBZ-induced ptosis; experiment: Effects on tetrabenazine (TBZ)-induced ptosis in mice; type: in vivo, mouse; settings: for ED50: Mus musculus, po
Description: Clinically active antidepressant drugs are known to block TBZ-induced ptosis in mice (See Psychosomatic Medicine, Nodine and Moyer, Eds. Lea and Febiger, Philadelphia, 1962, pp 683-90, which is hereby incorporated by reference). Activity in this test is used to predict anti-depressant activity in man.
The procedure for the TBZ-Induced Ptosis Test in Mice is set forth in Psychosomatic Medicine, Nodine and Moyer, Eds. Lea and Febiger, which is hereby incorporated by reference and in PCT/US91/06705, filed 20 Sep. 1991, which is mentioned above.
(§2) The results for this test are given below as ED50 's in the units of mg/kg.
TBZ refers to the test of effects on tetrabenazine induced ptosis in mice, p.o.;

[4] = Calcein cytotoxicity assay; type: cell-based; settings: human, lox melanoma cells; 2 hours, calcein AM assay; read-out: 2 Hr Tox LD50
Experimental: LOX human melanoma cells were detached from tissue culture flasks with RPMI medium containing 0.2M urea and 10 mM EDTA, and 0.18 ml of cells were added to each well to a final cell concentration of 5×10^4 cells/well. 20 μl of 10× compound was added to the wells prior to cell addition. Cells were incubated with the compound at 37° C. for 1 hour or 5 hour as indicated. Calcein AM in DPBS (0.02 ml of 5 μM) was added to each well, and the plates were incubated for an additional 1 hour at room temperature. Viable cells were quantitated by reading the fluorescence on a Cytofluor 2300 fluorescent plate reader at 485 nm excitation and 530 nm emission.

[5] = system: methamphetamine toxicity; experiment: Methamphetamine toxicity test in mice; type: in vivo; settings: Mus musculus, read-out: METHA ED50
Experimental: The methamphetamine toxicity test in mice was carried out as described in Burn et al, Arch. Int. Pharmacodyn 113:290-295, (1958); and Coscia et al, Arzneim-Forsch (Drug Research) 25:1436-1442, (1975); which are hereby incorporated by reference.
(§3) The results for this test are given below as ED50's in the units of mg/kg.
METHA refers to the methamphetamine toxicity test in mice;

[6] = system: acetic acid-induced writhing; experiment: Acetic Acid Writhing Test in Mice; type: in vivo, mouse; settings: Mus musculus, po, read-out: WRITH ED50
Description: The blockade of writhing induced by the intraperitoneal injection of acetic acid is an established experimental animal model for the screening of antinociceptive drugs (drugs which prevent the appreciation or transmission of pain sensations).
The procedure for the Acetic Acid Writhing Test in Mice is set forth in Hendershot et al, J. Pharmacol. Exp. Therap. 125:237, (1959); Koster et al., Fed. Proc. 18:412, (1959); and international application PCT/US91/06705, filed 20 Sep. 1991, which are hereby incorporated by reference.
The results for this test are given below in the units of mg/kg which is also abbreviated in this specification as mpk. The results for this test are given as effective doses (ED50 's).

[7] = system: LOX human melanoma cell adhesion to human fibronectin; experiment: LOX melanoma cell adhesion to fibronectin; type: cell-based; settings: Homo sapiens, LOX; for inhibition at 10 µM: read-out: % Inhibition at 10 μM; for inhibition at 50 µM: read-out: % Inhibition at 50 μM; for IC50: Table 4, 1 hour adhesion, read-out: LOX FN IC50
Experimental: as §1
LOX FN-IC50 value for inhibition of adhesion of LOX human melanoma cells to fibronectin coated on a plastic surface.

[8] = system: histamine-induced dyspnea; experiment: Bronchodilator (in vivo) Guinea Pig Dyspnea; settings: oral; for responders at 50 mg/kg / responders at 100 mg/kg: Cavia porcellus, 1 h, read-out: DYSP survivors (converted)
Experimental: Unanesthetized guinea pigs (250-350 g), fasted overnight were placed in individual closed aerosol chambers which were connected to a Monoghan Ultrasonic nebulizer. The nebulizer can deliver an ultrasonic fog of uniform particles in a range of 1-8 microns. A 0.1% solution of histamine is aerosolized into the chambers causing the guinea pigs to develop dyspnea. The test drug was given orally one hour before the histamine challenge and the onset of dyspnea was recorded. Saline control animals developed dyspnea within 90-120 seconds of aerosol exposure. […] The data was expressed as the number tested over the number survived. The model was sensitive to bronchodilator and H1 antihistamine activity. Further information relating this test can be obtained from the following two publications which are hereby incorporated by reference: Dungan, K. W. and Lish, P. M. J Allergy 32:139-151 (1961). and Lish, P. M., Robbins, S. I. and Petres E. L. J. Pharmacol. Exp. Therap. 153 L 1538 (1966 ).

[9] = system: metrazole; experiment: Anti-metrazole test in mice; type: in vivo, mouse; settings: Mus musculus, read-out: MTZ ED50
Experimental: The anti-metrazole test in mice was carried out as described in Everett et al, J. Pharmacol. Exp. Therap. 81:402-407 (1944); which is hereby incorporated by reference.
as §3

[10] = system: muricidal (mouse-killing) behavior; experiment: Effects on muricidal behavior in rats; type: in vivo, rat; settings: Rattus norvegicus, read-out: MUR ED50
Description: Blockade of muricidal (mouse-killing) behavior in rats is used as a measure of evaluating the anti-depressant activity of drugs, and the procedure for carrying out this test is set forth in Int. J. Neuro-pharmacal., 5, 405-411 (1966) are hereby incorporated by reference, and in PCT/US91/06705, filed 20 Sep. 1991, which is mentioned above.
as §2
MUR refers to the test on the effects on muricidal behavior in rats;

[11] = 50 mg/kg, one hour before histamine challenge
[12] = 100 mg/kg, one hour before histamine challenge

| SMILES | IC50 [1] | Pulmonary Resistance in Rats, % Inhibition [2] | ED50 [3] | CC50 at 2 h [4] | ED50 [5] | ED50 [6] | inhibition at 10 µM [7] | inhibition at 50 µM [7] | IC50 [7] | DYSP survivors [8, 12] | ED50 [9] | ED50 [10] | further results |
| --- | --- | --- | --- | --- | --- | --- | --- | --- | --- | --- | --- | --- | --- |
| CN1C2CCC1C1=C(C2)C(c2ccc(F)cc2)c2ccccc21 (centres unmarked) [W] | 78.3 µM | 21% | > 30 mg/kg | 103 µM | 8.9 mg/kg | 10.7 mg/kg | 36.3% | 100% | 17.4 µM | 3/3 | > 30 mg/kg |  | DYSP survivors ([8]; 10 mg/kg, one hour before histamine challenge): 1/3; DYSP survivors ([8]; 20 mg/kg, one hour before histamine challenge): 2/3; DYSP survivors [8, 11]: 2/3 |
| CN1C2CCC1C1C(=C(c3ccc(F)cc3)c3ccccc31)C2 (centres unmarked) [K] | 71.6 µM | 34% | > 30 mg/kg | 116 µM | 14.9 mg/kg |  | 27.6% | 100% | 15.5 µM | 3/3 | > 30 mg/kg |  | observation in TBZ test (footnote c) ([3]; p.o., at the dose of 30 marked c): animals were ataxic and depressed at this dose; DYSP survivors ([8]; 30 mg/kg, one hour before histamine challenge): 0/3; DYSP survivors ([8]; 60 mg/kg, one hour before histamine challenge): 1/3 |
| COc1ccc(C2C3=C(c4ccccc42)C2CCC(C3)N2C)cc1OC (centres unmarked) [AA] |  | 6% | > 30 mg/kg |  | > 30 mg/kg | 22.8 mg/kg | -30% | 23.6% |  | 0/3 | > 30 mg/kg | > 10 mg/kg |  |
| COc1ccc(C2(O)c3ccccc3C3C4CCC(CC32)N4)cc1 (centres unmarked) [JJ] |  |  | > 30 mg/kg |  | > 30 mg/kg | > 30 mg/kg | 10.1% | 33.7% |  |  | > 30 mg/kg |  | responders at 50 mg/kg [8, 11]: 33.3%; responders at 100 mg/kg [8, 12]: 66.7% |
| COc1ccc2c(c1)C(c1ccccc1)C1=C2C2CCC(C1)N2 (centres unmarked) [FF] |  | 2% | > 30 mg/kg |  | > 30 mg/kg | > 30 mg/kg |  |  |  | 0/3 | > 30 mg/kg |  |  |
| COc1ccc2c(c1)C(c1ccccc1)=C1CC3CCC(C12)N3C (centres unmarked) [V] |  |  | > 30 mg/kg |  |  |  |  |  |  | 0/3 |  |  |  |
| COc1ccc(C2C3=C(c4ccccc42)C2CCC(C3)N2)cc1 (centres unmarked) [Compound X] | 121 µM |  | 17.3 mg/kg | 67.7 µM | > 60 mg/kg | > 30 mg/kg | 20.8% | 99.7% | 15 µM |  |  | > 30 mg/kg |  |
| COc1ccc(C2=C3CC4CCC(C3c3ccccc32)N4C)cc1 (centres unmarked) [R] | 112 µM | 26% | 17.3 mg/kg | 138 µM | > 30 mg/kg | > 30 mg/kg | -27.3% | 97.1% | 15 µM | 1/3 | > 30 mg/kg |  |  |
| CN1C2CCC1C1c3ccccc3C(c3ccccc3)C1C2 (centres unmarked) [MM] |  |  | 9.3 mg/kg |  |  |  | -1.8% | 25.8% |  |  |  | > 10 mg/kg | inhibition in vivo at 0.5 mg/kg [2]: 9%; responders at 50 mg/kg [8, 11]: 0%; responders at 100 mg/kg [8, 12]: 66.7% |
| COc1ccc2c(c1)C1=C(CC3CCC1N3C)C2c1ccccc1 (centres unmarked) [Z] | > 250 µM |  | > 30 mg/kg | > 250 µM | > 30 mg/kg | 17.3 mg/kg | -27.6% | 67% | 28.1 µM | 0/3 | > 30 mg/kg |  |  |
| COc1ccc(C2C3=C(c4ccccc42)C2CCC(C3)N2C)cc1 (centres unmarked) [Y] | 105 µM |  | 0.35 mg/kg | 63.6 µM | > 30 mg/kg |  | -1.2% | 98.2% | 21.6 µM |  |  | > 20 mg/kg | DYSP survivors ([8]; dose not given): 2/3 |
| c1ccc(C2=C3CC4CCC(N4)C3c3ccccc32)cc1 (centres unmarked) [Q] | 83.6 µM | 24% | 3.6 mg/kg | 66.7 µM |  | > 30 mg/kg | 0.1% | 97.1% | 19.1 µM | 0/3 | > 30 mg/kg | > 10 mg/kg |  |
| COc1ccc2c(c1)C1C3CCC(CC1C2(O)c1ccccc1)N3C (centres unmarked) [UU] |  |  | > 30 mg/kg |  | > 30 mg/kg | 17.3 mg/kg | 10.3% | 15.9% |  |  | > 30 mg/kg |  | inhibition in vivo at 0.5 mg/kg [2]: 2% |
